# Source: US11053204B2, “Pyrimidinyloxy benzene derivatives as herbicides” (FMC Corporation, priority 2015, dated 2021)
# Assays:
# Assay type in all cases: in vivo
# [1] = system: kochia (Kochia scoparia); assay: Test C postemergence, plant response rating; details: for Kochia plant response rating: scale 0 to 100 (0 no effect, 100 complete control)
# Procedure, shortened: (§1)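 Preemergence: seeds sown in loam–sand blend or silt loam and sprayed with test chemicals in a non-phytotoxic surfactant-containing solvent. Postemergence: potted plants at 2–18 cm (1–4-leaf stage) sprayed with the same formulation. After 13–15 d in greenhouse, visual rating versus controls on 0 (no effect) to 100 (complete control) scale.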
# [2] = system: waterhemp (common waterhemp, Amaranthus rudis); assay: Test C postemergence, plant response rating
# Procedure, shortened: as §1
# [3] = system: chickweed (common chickweed, Stellaria media); assay: Test C postemergence, plant response rating; details: for Chickweed plant response rating: scale 0 to 100 (0 no effect, 100 complete control)
# Procedure, shortened: as §1
# [4] = system: blackgrass (Alopecurus myosuroides); assay: Test C postemergence, plant response rating; details: for Plant response rating, Blackgrass: scale 0 to 100; for Blackgrass plant response rating: scale 0 to 100 (0 no effect, 100 complete control)
# Procedure, shortened: as §1
# [5] = system: wheat (winter wheat, Triticum aestivum); assay: Test C postemergence, plant response rating
# Procedure, shortened: as §1
# [6] = system: foxtail, giant (giant foxtail, Setaria faberii); assay: Test C postemergence, plant response rating; details: for Foxtail, Giant plant response rating: scale 0 to 100 (0 no effect, 100 complete control)
# Procedure, shortened: as §1
# [7] = system: morningglory (Ipomoea coccinea); assay: Test C postemergence, plant response rating; details: for Morningglory plant response rating: scale 0 to 100 (0 no effect, 100 complete control)
# Procedure, shortened: as §1
# [8] = system: ragweed (common ragweed, Ambrosia elatior); assay: Test C postemergence, plant response rating; details: for Ragweed plant response rating: scale 0 to 100 (0 no effect, 100 complete control)
# Procedure, shortened: as §1
# [9] = system: oilseed rape (Brassica napus); assay: Test C postemergence, plant response rating; details: for Oilseed Rape plant response rating: scale 0 to 100 (0 no effect, 100 complete control)
# Procedure, shortened: as §1
# [10] = system: soybean (Glycine max); assay: Test C postemergence, plant response rating; details: for Soybean plant response rating: scale 0 to 100 (0 no effect, 100 complete control)
# Procedure, shortened: as §1
# [11] = system: oat, wild (wild oat Avena fatua); assay: Test C postemergence, plant response rating; details: for Oat, Wild plant response rating: scale 0 to 100 (0 no effect, 100 complete control)
# Procedure, shortened: as §1
# [12] = system: galium (catchweed bedstraw, Galium aparine); assay: Test C postemergence, plant response rating; details: for Galium plant response rating: scale 0 to 100 (0 no effect, 100 complete control)
# Procedure, shortened: as §1
# [13] = system: corn (Zea mays); assay: Test C postemergence, plant response rating; details: for Corn plant response rating: scale 0 to 100 (0 no effect, 100 complete control)
# Procedure, shortened: as §1
# [14] = system: nutsedge, yellow (yellow nutsedge, Cyperus esculentus); assay: Test C postemergence, plant response rating; details: for Nutsedge, Yellow plant response rating: scale 0 to 100 (0 no effect, 100 complete control)
# Procedure, shortened: as §1
# [15] = system: velvetleaf (Abutilon theophrasti); assay: Test C postemergence, plant response rating
# Procedure, shortened: as §1
# [16] = system: lambsquarters (Chenopodium album); assay: Test C postemergence, plant response rating; details: for Lambsquarters plant response rating: scale 0 to 100 (0 no effect, 100 complete control)
# Procedure, shortened: as §1
# [17] = system: pigweed, palmer (palmer pigweed, Amaranthus palmeri); assay: Test C preemergence, plant response rating
# [18] = system: wild poinsettia (Euphorbia heterophylla); assay: Test C preemergence, plant response rating
# [19] = system: windgrass (Apera spica-venti); assay: Test C preemergence, plant response rating
# [20] = system: oat, wild (wild oat Avena fatua); assay: Test C preemergence, plant response rating
# [21] = system: surinam grass (Brachiaria decumbens); assay: Test C preemergence, plant response rating
# [22] = 125 g ai/ha, scale 0 to 100 (0 no effect, 100 complete control)
compound,measurement,setting,value
O=C(CCCC(F)(F)F)c1c(Oc2ncc(Cl)cn2)cccc1C(F)(F)F [Compound 125],"Plant response rating, Kochia","[1]; 16 g ai/ha, scale of 0 to 100",85
same,"Plant response rating, Kochia","[1]; 31 g ai/ha, scale 0 to 100",90
same,Kochia plant response rating,[1]; 62 g ai/ha,95
same,Kochia plant response rating,[1]; 125 g ai/ha,98
same,"Plant response rating, Waterhemp","[2]; 16 g ai/ha, scale of 0 to 100",75
same,"Plant response rating, Waterhemp","[2]; 31 g ai/ha, scale 0 to 100",80
same,Waterhemp plant response rating,[2]; [22],90
same,"Plant response rating, Chickweed","[3]; 16 g ai/ha, scale of 0 to 100",70
same,"Plant response rating, Chickweed","[3]; 31 g ai/ha, scale 0 to 100",75
same,Chickweed plant response rating,[3]; 62 g ai/ha,90
same,Chickweed plant response rating,[3]; 125 g ai/ha,98
same,"Plant response rating, Blackgrass",[4]; 16 g ai/ha,10
same,"Plant response rating, Blackgrass",[4]; 31 g ai/ha,20
same,Blackgrass plant response rating,[4]; 62 g ai/ha,15
same,Blackgrass plant response rating,[4]; 125 g ai/ha,30
same,"Plant response rating, Wheat","[5]; 16 g ai/ha, scale of 0 to 100",5
same,"Plant response rating, Wheat","[5]; 31 g ai/ha, scale 0 to 100",5
same,Wheat plant response rating,[5]; [22],25
same,"Plant response rating, Foxtail, Giant","[6]; 16 g ai/ha, scale of 0 to 100",10
same,"Plant response rating, Foxtail, Giant","[6]; 31 g ai/ha, scale 0 to 100",10
same,"Foxtail, Giant plant response rating",[6]; 62 g ai/ha,10
same,"Foxtail, Giant plant response rating",[6]; 125 g ai/ha,25
same,"Plant response rating, Morningglory","[7]; 16 g ai/ha, scale of 0 to 100",20
same,"Plant response rating, Morningglory","[7]; 31 g ai/ha, scale 0 to 100",45
same,Morningglory plant response rating,[7]; 62 g ai/ha,50
same,Morningglory plant response rating,[7]; 125 g ai/ha,75
same,"Plant response rating, Ragweed","[8]; 16 g ai/ha, scale of 0 to 100",5
same,"Plant response rating, Ragweed","[8]; 31 g ai/ha, scale 0 to 100",35
same,Ragweed plant response rating,[8]; 62 g ai/ha,45
same,Ragweed plant response rating,[8]; 125 g ai/ha,55
same,"Plant response rating, Oilseed Rape","[9]; 16 g ai/ha, scale of 0 to 100",80
same,"Plant response rating, Oilseed Rape","[9]; 31 g ai/ha, scale 0 to 100",85
same,Oilseed Rape plant response rating,[9]; 62 g ai/ha,90
same,Oilseed Rape plant response rating,[9]; 125 g ai/ha,95
same,"Plant response rating, Soybean","[10]; 16 g ai/ha, scale of 0 to 100",25
same,"Plant response rating, Soybean","[10]; 31 g ai/ha, scale 0 to 100",60
same,Soybean plant response rating,[10]; 62 g ai/ha,65
same,Soybean plant response rating,[10]; 125 g ai/ha,70
same,"Plant response rating, Oat, Wild","[11]; 16 g ai/ha, scale of 0 to 100",5
same,"Plant response rating, Oat, Wild","[11]; 31 g ai/ha, scale 0 to 100",10
same,"Oat, Wild plant response rating",[11]; 62 g ai/ha,15
same,"Oat, Wild plant response rating",[11]; 125 g ai/ha,15
same,"Plant response rating, Galium","[12]; 16 g ai/ha, scale of 0 to 100",65
same,"Plant response rating, Galium","[12]; 31 g ai/ha, scale 0 to 100",70
same,Galium plant response rating,[12]; 62 g ai/ha,80
same,Galium plant response rating,[12]; 125 g ai/ha,90
same,"Plant response rating, Corn","[13]; 16 g ai/ha, scale of 0 to 100",10
same,"Plant response rating, Corn","[13]; 31 g ai/ha, scale 0 to 100",10
same,Corn plant response rating,[13]; 62 g ai/ha,15
same,Corn plant response rating,[13]; 125 g ai/ha,20
same,"Plant response rating, Nutsedge, Yellow","[14]; 16 g ai/ha, scale of 0 to 100",5
same,"Plant response rating, Nutsedge, Yellow","[14]; 31 g ai/ha, scale 0 to 100",5
same,"Nutsedge, Yellow plant response rating",[14]; 62 g ai/ha,5
same,"Nutsedge, Yellow plant response rating",[14]; 125 g ai/ha,10
same,"Plant response rating, Velvetleaf","[15]; 16 g ai/ha, scale of 0 to 100",20
same,"Plant response rating, Velvetleaf","[15]; 31 g ai/ha, scale 0 to 100",35
same,Velvetleaf plant response rating,[15]; [22],30
same,"Plant response rating, Lambsquarters","[16]; 16 g ai/ha, scale of 0 to 100",70
same,"Plant response rating, Lambsquarters","[16]; 31 g ai/ha, scale 0 to 100",98
same,Lambsquarters plant response rating,[16]; 62 g ai/ha,95
same,Lambsquarters plant response rating,[16]; 125 g ai/ha,100
same,"Plant response rating, Pigweed, Palmer","[17]; 31 g ai/ha, scale 0 to 100",100
same,"Plant response rating, Pigweed, Palmer","[17]; 62 g ai/ha, scale 0 to 100",100
same,"Plant response rating, Pigweed, Palmer","[17]; 125 g ai/ha, scale of 0 to 100",100
same,"Plant response rating, Poinsettia, Wild","[18]; 31 g ai/ha, scale 0 to 100",0
same,"Plant response rating, Poinsettia, Wild","[18]; 62 g ai/ha, scale 0 to 100",25
same,"Plant response rating, Poinsettia, Wild","[18]; 125 g ai/ha, scale of 0 to 100",30
same,"Plant response rating, Windgrass","[19]; 31 g ai/ha, scale 0 to 100",85
same,"Plant response rating, Windgrass","[19]; 62 g ai/ha, scale 0 to 100",90
same,"Plant response rating, Windgrass","[19]; 125 g ai/ha, scale of 0 to 100",100
same,"Plant response rating, Oat, Wild","[20]; 31 g ai/ha, scale 0 to 100",0
same,"Plant response rating, Oat, Wild","[20]; 62 g ai/ha, scale 0 to 100",10
same,"Plant response rating, Oat, Wild","[20]; 125 g ai/ha, scale of 0 to 100",55
same,"Plant response rating, Surinam Grass","[21]; 31 g ai/ha, scale 0 to 100",20
same,"Plant response rating, Surinam Grass","[21]; 62 g ai/ha, scale 0 to 100",40
same,"Plant response rating, Surinam Grass","[21]; 125 g ai/ha, scale of 0 to 100",65
